Measured values taken from patent US7741341B2, “Benzimidazole-derivatives as factor Xa inhibitors” (sanofi-aventis Deutschland GmbH, priority 2003, dated 2010).

biological target: T1, human factor Xa (Homo sapiens, UniProt P00742); assay: Factor Xa assay (chromogenic, substrate S-2765); format: biochemical; conditions: read-out: Ki(FXa)
T1 construct: human factor Xa (Enzyme Research Laboratories, Inc; South Bend, Ind.); purchased Enzyme Research Laboratories, Inc; South Bend, Ind
Procedure: Purified enzymes were used in chromogenic assays.
The IC50 was determined by combining in appropriate wells of a Costar half-area microtiter plate 25 μl human factor Xa (Enzyme Research Laboratories, Inc.; South Bend, Ind.) in TBS-PEG; 40 μl 10% (v/v) DMSO in TBS-PEG (uninhibited control) or various concentrations of the compound to be tested diluted in 10% (v/v) DMSO in TBS-PEG; and substrate S-2765 (N(α)-benzyloxycarbonyl-D-Arg-Gly-L-Arg-p-nitroanilide; Kabi Pharmacia, Inc.; Franklin, Ohio) in TBS-PEG.
The assay was performed by pre-incubating the compound of formula I plus enzyme for 10 min. Then the assay was initiated by adding substrate to obtain a final volume of 100 μl. […] The enzyme concentration was 0.5 nM and substrate concentration was 140 μM.

T1 sequence (P00742 235-488 limits assumed): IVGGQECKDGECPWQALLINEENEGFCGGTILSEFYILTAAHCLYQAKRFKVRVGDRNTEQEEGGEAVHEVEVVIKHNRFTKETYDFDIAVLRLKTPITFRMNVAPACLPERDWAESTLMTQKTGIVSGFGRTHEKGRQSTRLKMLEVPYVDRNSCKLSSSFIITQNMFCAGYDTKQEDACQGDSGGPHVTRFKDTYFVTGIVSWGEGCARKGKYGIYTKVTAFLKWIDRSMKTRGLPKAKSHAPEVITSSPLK
T1 sequence (P00742 41-179 partner limits assumed): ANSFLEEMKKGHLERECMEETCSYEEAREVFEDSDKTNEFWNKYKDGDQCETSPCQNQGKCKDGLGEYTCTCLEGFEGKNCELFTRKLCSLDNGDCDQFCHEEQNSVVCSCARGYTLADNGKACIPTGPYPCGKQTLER

Row | Ki [nM] | Compound
1 | 0.7 | CC(C)N1CCC(NC(=O)c2nc3c(C(=O)NCCO)cccc3n2Cc2cc(-c3ccc(Cl)s3)on2)CC1 [Example 22, 1-[5-(5-Chloro-thiophen-2-yl)-isoxazol-3-ylmethyl]-1H-benzoimidazole-2,4-dicarboxylic acid 4-[(2-hydroxy-ethyl)-amide] 2-[(1-isopropyl-piperidin-4-yl)-amide]]
2 | 8 | CC(C)N1CCC(NC(=O)c2nc3c(C(=O)N4CC(O)C4)cccc3n2Cc2cc(-c3ccc(Cl)s3)on2)CC1 [Example 23, 1-[5-(5-Chloro-thiophen-2-yl)-isoxazol-3-ylmethyl]-4-(3-hydroxy-azetidine-1-carbonyl)-1H-benzoimidazole-2-carboxylic acid (1-isopropyl-piperidin-4-yl)-amide]
3 | 26 | CC(C)N1CCC(NC(=O)c2nc3c(C(=O)N(C)CCO)cccc3n2Cc2cc(-c3ccc(Cl)s3)on2)CC1 [Example 24, 1-[5-(5-Chloro-thiophen-2-yl)-isoxazol-3-ylmethyl]-1H-benzoimidazole-2,4-dicarboxylic acid 4-[(2-hydroxy-ethyl)-methyl-amide] 2-[(1-isopropyl-piperidin-4-yl)-amide]]
4 | 65 | CC(C)N1CCC(NC(=O)c2nc3cc(C(=O)N(C)CCO)ccc3n2Cc2cc(-c3ccc(Cl)s3)on2)CC1 [Example 25, 1-[5-(5-Chloro-thiophen-2-yl)-isoxazol-3-ylmethyl]-1H-benzoimidazole-2,5-dicarboxylic acid 5-[(2-hydroxy-ethyl)-methyl-amide] 2-[(1-isopropyl-piperidin-4-yl)-amide]]
5 | 18.5 | CC(C)N1CCC(NC(=O)c2nc3cc(C(=O)N4CC(O)C4)ccc3n2Cc2cc(-c3ccc(Cl)s3)on2)CC1 [Example 26, 1-[5-(5-Chloro-thiophen-2-yl)-isoxazol-3-ylmethyl]-5-(3-hydroxy-azetidine-1-carbonyl)-1H-benzoimidazole-2-carboxylic acid (1-isopropyl-piperidin-4-yl)-amide]
6 | 12.5 | CCOC(=O)OC(C)OC(=O)c1ccc2c(c1)nc(C(=O)NC1CCN(C(C)C)CC1)n2Cc1cc(-c2ccc(Cl)s2)on1 (stereo not shown) [Example 27, 1-[5-(5-Chloro-thiophen-2-yl)-isoxazol-3-ylmethyl]-2-(1-isopropyl-piperidin-4-ylcarbamoyl)-1H-benzoimidazole-5-carboxylic acid 1-ethoxycarbonyloxy-ethyl ester]
7 | 48 | CC(OC(=O)OC1CCCCC1)OC(=O)c1ccc2c(c1)nc(C(=O)NC1CCN(C(C)C)CC1)n2Cc1cc(-c2ccc(Cl)s2)on1 (stereo not shown) [Example 28, 1-[5-(5-Chloro-thiophen-2-yl)-isoxazol-3-ylmethyl]-2-(1-isopropyl-piperidin-4-ylcarbamoyl)-1H-benzoimidazole-5-carboxylic acid 1-cyclohexyloxycarbonyloxy-ethyl ester]
8 | 25.5 | CC(C)N1CCC(NC(=O)c2nc3cc(S(=O)(=O)CCO)ccc3n2Cc2cc(-c3ccc(Cl)s3)on2)CC1 [Example 29a, 1-[5-(5-Chloro-thiophen-2-yl)-isoxazol-3-ylmethyl]-5-(2-hydroxy-ethanesulfonyl)-1H-benzoimidazole-2-carboxylic acid (1-isopropyl-piperidin-4-yl)-amide]
9 | 11.5 | CC(C)N1CCC(NC(=O)c2nc3ccc(S(=O)(=O)CCO)cc3n2Cc2cc(-c3ccc(Cl)s3)on2)CC1 [Example 29b, 1-[5-(5-Chloro-thiophen-2-yl)-isoxazol-3-ylmethyl]-6-(2-hydroxy-ethanesulfonyl)-1H-benzoimidazole-2-carboxylic acid (1-isopropyl-piperidin-4-yl)-amide]
10 | 9 | CC(C)N1CCC(NC(=O)c2nc3c(C(=O)NCCO)cccc3n2CC(=O)Nc2ccc(Cl)cn2)CC1 [Example 30, 1-[(5-Chloro-pyridin-2-ylcarbamoyl)-methyl]-1H-benzoimidazole-2,4-dicarboxylic acid 4-[(2-hydroxy-ethyl)-amide] 2-[(1-isopropyl-piperidin-4-yl)-amide]]
